Patent US11987586B1 (TAKEDA PHARMACEUTICAL COMPANY LIMITED, priority 2022, dated 2024)

Biological target: T1, human OX2 receptor (Homo sapiens, UniProt O43614)
T1 construct: expressed in transfected cells
T1 sequence (O43614 1-444): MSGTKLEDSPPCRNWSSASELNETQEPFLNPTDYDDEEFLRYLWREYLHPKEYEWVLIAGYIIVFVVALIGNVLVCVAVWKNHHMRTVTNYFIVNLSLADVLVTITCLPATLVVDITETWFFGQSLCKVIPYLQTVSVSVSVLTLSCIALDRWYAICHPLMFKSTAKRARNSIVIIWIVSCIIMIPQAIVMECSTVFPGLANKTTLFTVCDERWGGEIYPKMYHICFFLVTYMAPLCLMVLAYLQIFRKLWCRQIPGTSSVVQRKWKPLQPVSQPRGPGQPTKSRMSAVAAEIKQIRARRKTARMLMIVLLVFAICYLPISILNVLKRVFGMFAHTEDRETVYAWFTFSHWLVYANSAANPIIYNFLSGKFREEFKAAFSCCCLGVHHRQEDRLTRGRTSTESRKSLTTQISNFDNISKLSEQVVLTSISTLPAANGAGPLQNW
Assay: Measurement of orexin type 2 receptor agonist activity (calcium fluorescence, Fluo-4, FDSS)
Type: cell-based
Conditions: 3 uM test compound; CHO cells expressing human OX2 receptor; DMSO = 0%, 10 nM orexin A (human) = 100%
Procedure, shortened: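 CHO-K1 cells stably expressing human OX2 receptor (residues 1-444) were loaded with Fluo-4 AM plus probenecid. Calcium fluorescence after compound addition was recorded for 1 min 40 s. Activity (%) was scaled between DMSO (0%) and 10 nM orexin A final (100%).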

In order of falling “OX2R agonist activity (3 uM, %)” value:
1. O=C1N(c2noc3ccc(F)c(-c4c(F)cc(F)cc4F)c23)CC[C@H]2N1C[C@@H](NS(=O)(=O)CF)C2(F)F [Example 207, N-{(4aR,6R)-5,5-difluoro-2-[5-fluoro-4-(2,4,6-trifluorophenyl)-1,2-benzoxazol-3-yl]-1-oxooctahydropyrrolo[1,2-c]pyrimidin-6-yl}-1-fluoromethanesulfonamide]  113%
2. Cc1cc2onc(-n3cc4n(c3=O)C[C@@H](NS(C)(=O)=O)C4(F)F)c2c(-c2c(F)cc(F)cc2F)n1 [Example 229, N-{(6R)-7,7-difluoro-2-[6-methyl-4-(2,4,6-trifluorophenyl)[1,2]oxazolo[4,5-c]pyridin-3-yl]-3-oxo-2,5,6,7-tetrahydro-3H-pyrrolo[1,2-c]imidazol-6-yl}methanesulfonamide]  113%
3. CCS(=O)(=O)N[C@@H]1CN2C(=O)N(c3noc4cc(C)nc(-c5c(F)cc(F)cc5F)c34)CC[C@@H]2C1(F)F [Example 220, N-{(4aR,6R)-5,5-difluoro-2-[6-methyl-4-(2,4,6-trifluorophenyl)[1,2]oxazolo[4,5-c]pyridin-3-yl]-1-oxooctahydropyrrolo[1,2-c]pyrimidin-6-yl}ethanesulfonamide]  112%
4. CS(=O)(=O)N[C@@H]1CN2C(=O)N(c3noc4cccc(-c5c(F)cccc5F)c34)CC[C@@H]2C1(F)F [Example 206, N-{(4aR,6R)-2-[4-(2,6-difluorophenyl)-1,2-benzoxazol-3-yl]-5,5-difluoro-1-oxooctahydropyrrolo[1,2-c]pyrimidin-6-yl}methanesulfonamide]  110%
5. CCS(=O)(=O)N[C@@H]1CN2C(=O)N(c3noc4ccc(F)c(-c5c(F)cc(F)cc5F)c34)CC[C@@H]2C1(F)F [Example 204, N-{(4aR,6R)-5,5-difluoro-2-[5-fluoro-4-(2,4,6-trifluorophenyl)-1,2-benzoxazol-3-yl]-1-oxooctahydropyrrolo[1,2-c]pyrimidin-6-yl}ethanesulfonamide]  109%
6. CS(=O)(=O)N[C@@H]1CN2C(=O)N(c3noc4cc(Br)cc(-c5c(F)cccc5F)c34)CC[C@@H]2C1(F)F [Example 224, N-{(4aR,6R)-2-[6-bromo-4-(2,6-difluorophenyl)-1,2-benzoxazol-3-yl]-5,5-difluoro-1-oxooctahydropyrrolo[1,2-c]pyrimidin-6-yl}methanesulfonamide]  109%
7. CCS(=O)(=O)N[C@@H]1Cn2c(cn(-c3noc4nc(C5CC5)cc(-c5c(F)cccc5F)c34)c2=O)C1(F)F [Example 211, N-{(6R)-2-[6-cyclopropyl-4-(2,6-difluorophenyl)[1,2]oxazolo[5,4-b]pyridin-3-yl]-7,7-difluoro-3-oxo-2,5,6,7-tetrahydro-3H-pyrrolo[1,2-c]imidazol-6-yl}ethanesulfonamide]  108%
8. Cc1cc2onc(-n3cc4n(c3=O)C[C@@H](NS(=O)(=O)N(C)C)C4(F)F)c2c(-c2c(F)cc(F)cc2F)n1 [Example 218, N′-{(6R)-7,7-difluoro-2-[6-methyl-4-(2,4,6-trifluorophenyl)[1,2]oxazolo[4,5-c]pyridin-3-yl]-3-oxo-2,5,6,7-tetrahydro-3H-pyrrolo[1,2-c]imidazol-6-yl}-N,N-dimethylsulfuric diamide]  108%
9. CCS(=O)(=O)N[C@H]1C[C@H]2CCN(c3noc4cccc(-c5c(F)cc(F)cc5F)c34)C(=O)N2C1 [Example 205, N-{(4aR,6S)-1-oxo-2-[4-(2,4,6-trifluorophenyl)-1,2-benzoxazol-3-yl]octahydropyrrolo[1,2-c]pyrimidin-6-yl}ethanesulfonamide]  107%
10. COCc1cc(-c2c(F)cc(F)cc2F)c2c(N3CC[C@H]4N(C[C@@H](NS(=O)(=O)C5CC5)C4(F)F)C3=O)noc2c1 [Example 222, N-{(4aR,6R)-5,5-difluoro-2-[6-(methoxymethyl)-4-(2,4,6-trifluorophenyl)-1,2-benzoxazol-3-yl]-1-oxooctahydropyrrolo[1,2-c]pyrimidin-6-yl}cyclopropanesulfonamide]  107%
11. CS(=O)(=O)N[C@@H]1CN2C(=O)N(c3noc4cc(C(F)(F)F)cc(-c5c(F)cc(F)cc5F)c34)CC[C@@H]2C1(F)F [Example 225, N-{(4aR,6R)-5,5-difluoro-1-oxo-2-[6-(trifluoromethyl)-4-(2,4,6-trifluorophenyl)-1,2-benzoxazol-3-yl]octahydropyrrolo[1,2-c]pyrimidin-6-yl}methanesulfonamide]  106%
12. CCOc1cc(-c2c(F)cc(F)cc2F)c2c(N3CC[C@H]4N(C[C@@H](NS(C)(=O)=O)C4(F)F)C3=O)noc2c1 [Example 217, N-{(4aR,6R)-2-[6-ethoxy-4-(2,4,6-trifluorophenyl)-1,2-benzoxazol-3-yl]-5,5-difluoro-1-oxooctahydropyrrolo[1,2-c]pyrimidin-6-yl}methanesulfonamide]  104%
13. CCS(=O)(=O)N[C@@H]1CN2C(=O)N(c3noc4cc(COC)c(F)c(-c5c(F)cccc5F)c34)CC[C@@H]2C1(F)F [Example 221, N-{(4aR,6R)-2-[4-(2,6-difluorophenyl)-5-fluoro-6-(methoxymethyl)-1,2-benzoxazol-3-yl]-5,5-difluoro-1-oxooctahydropyrrolo[1,2-c]pyrimidin-6-yl}ethanesulfonamide]  104%
14. CS(=O)(=O)N[C@@H]1CN2C(=O)N(c3noc4cccc(-c5ccccc5)c34)CC[C@@H]2C1(F)F [Example 223, N-[(4aR,6R)-5,5-difluoro-1-oxo-2-(4-phenyl-1,2-benzoxazol-3-yl)octahydropyrrolo[1,2-c]pyrimidin-6-yl]methanesulfonamide]  104%
15. Cc1cc2onc(-n3cc4n(c3=O)C[C@@H](NS(=O)(=O)C3CC3)C4(F)F)c2c(-c2c(F)cc(F)cc2F)n1 [Example 219, N-{(6R)-7,7-difluoro-2-[6-methyl-4-(2,4,6-trifluorophenyl)[1,2]oxazolo[4,5-c]pyridin-3-yl]-3-oxo-2,5,6,7-tetrahydro-3H-pyrrolo[1,2-c]imidazol-6-yl}cyclopropanesulfonamide]  103%
16. CS(=O)(=O)N[C@@H]1CN2C(=O)N(c3noc4cc(F)cc(-c5c(F)cc(F)cc5F)c34)CC[C@@H]2C1(F)F [Example 208, N-{(4aR,6R)-5,5-difluoro-2-[6-fluoro-4-(2,4,6-trifluorophenyl)-1,2-benzoxazol-3-yl]-1-oxooctahydropyrrolo[1,2-c]pyrimidin-6-yl}methanesulfonamide]  102%
17. CCOc1cc2onc(N3CC[C@H]4N(C[C@@H](NS(C)(=O)=O)C4(F)F)C3=O)c2c(-c2c(F)cccc2F)c1F [Example 228, N-{(4aR,6R)-2-[4-(2,6-difluorophenyl)-6-ethoxy-5-fluoro-1,2-benzoxazol-3-yl]-5,5-difluoro-1-oxooctahydropyrrolo[1,2-c]pyrimidin-6-yl}methanesulfonamide]  102%
18. CCS(=O)(=O)N[C@@H]1Cn2c(cn(-c3noc4cc(COC)c(F)c(-c5c(F)cccc5F)c34)c2=O)C1(F)F [Example 212, N-{(6R)-2-[4-(2,6-difluorophenyl)-5-fluoro-6-(methoxymethyl)-1,2-benzoxazol-3-yl]-7,7-difluoro-3-oxo-2,5,6,7-tetrahydro-3H-pyrrolo[1,2-c]imidazol-6-yl}ethanesulfonamide]  100%
19. COCc1cc(-c2c(F)cccc2F)c2c(N3CC[C@H]4N(C[C@@H](NS(C)(=O)=O)C4(F)F)C3=O)noc2c1 [Example 215, N-{(4aR,6R)-2-[4-(2,6-difluorophenyl)-6-(methoxymethyl)-1,2-benzoxazol-3-yl]-5,5-difluoro-1-oxooctahydropyrrolo[1,2-c]pyrimidin-6-yl}methanesulfonamide]  99%
20. COCc1cc2onc(N3CC[C@H]4N(C[C@@H](NS(C)(=O)=O)C4(F)F)C3=O)c2c(-c2c(F)cc(F)cc2F)c1F [Example 227, N-{(4aR,6R)-5,5-difluoro-2-[5-fluoro-6-(methoxymethyl)-4-(2,4,6-trifluorophenyl)-1,2-benzoxazol-3-yl]-1-oxooctahydropyrrolo[1,2-c]pyrimidin-6-yl}methanesulfonamide]  98%
21. Cc1cc(-c2c(F)cccc2F)c2c(N3CC[C@H]4N(C[C@@H](NS(C)(=O)=O)C4(F)F)C3=O)noc2c1 [Example 209, N-{(4aR,6R)-2-[4-(2,6-difluorophenyl)-6-methyl-1,2-benzoxazol-3-yl]-5,5-difluoro-1-oxooctahydropyrrolo[1,2-c]pyrimidin-6-yl}methanesulfonamide]  96%
22. COCc1cc(-c2c(F)cc(F)cc2F)c2c(N3CC[C@H]4N(C[C@@H](NS(C)(=O)=O)C4(F)F)C3=O)noc2c1 [Example 210, N-{(4aR,6R)-5,5-difluoro-2-[6-(methoxymethyl)-4-(2,4,6-trifluorophenyl)-1,2-benzoxazol-3-yl]-1-oxooctahydropyrrolo[1,2-c]pyrimidin-6-yl}methanesulfonamide]  94%
23. COCc1cc2onc(-n3cc4n(c3=O)C[C@@H](NS(C)(=O)=O)C4(F)F)c2c(-c2c(F)cccc2F)c1F [Example 226, N-{(6R)-2-[4-(2,6-difluorophenyl)-5-fluoro-6-(methoxymethyl)-1,2-benzoxazol-3-yl]-7,7-difluoro-3-oxo-2,5,6,7-tetrahydro-3H-pyrrolo[1,2-c]imidazol-6-yl}methanesulfonamide]  93%
